Measurements as given in ChEMBL document CHEMBL1201862, “PubChem BioAssay data set” (2004).
Active and inactive are the calls of the source.

Experiments:
[1] = inhibitors of intracellular T. cruzi replication, confirmation, NIH3T3 host cells, beta-gal luminescence (AID 2044); format: functional, cell-based;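 note: intracellular parasites grown in NIH/3T3 mouse fibroblasts as host cells; luminescent beta-galactosidase reporter signal from transgenic T. cruzi replicating inside host cells; inhibitors lower the luminescence signal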
[2] = cytotoxicity toward NIH3T3 fibroblasts, dose response, counter-screen, cell-based, ATP luminescence, mouse fibroblasts (AID 2010); format: functional;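 note: cells exposed to compound for about 90 hours before reading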
[3] = THP-1 cell cytotoxicity, dose response, cytotoxicity control for non-replicating M. tuberculosis project (AID 489025); format: functional
[4] = HepG2 cell cytotoxicity, dose response, cytotoxicity control for non-replicating M. tuberculosis project (AID 489018); format: functional; conditions: Mycobacterium tuberculosis
[5] = Vero E6 cell cytotoxicity, dose response, cytotoxicity control for non-replicating M. tuberculosis project, secondary assay (AID 492998); format: functional, VeroE6; conditions: Vero C1008
[6] = cells; format: functional
[7] = biological target: T1, Sentrin-specific protease 8 (Homo sapiens, UniProt Q96LD8); format: functional
T1 sequence (Q96LD8 whole entry): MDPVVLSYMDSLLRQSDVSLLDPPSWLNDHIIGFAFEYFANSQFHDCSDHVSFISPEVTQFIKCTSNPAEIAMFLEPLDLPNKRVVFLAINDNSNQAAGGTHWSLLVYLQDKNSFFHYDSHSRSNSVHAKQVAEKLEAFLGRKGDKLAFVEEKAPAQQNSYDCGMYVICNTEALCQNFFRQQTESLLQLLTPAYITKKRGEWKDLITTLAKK

[8] = biological target: T1, Sentrin-specific protease 8; format: functional; remark: listed apart in the source
[9] = MDA-MB-231 cell growth inhibition, dose response, cytotoxicity control for RAD54 inhibitor project, CellTiter-Glo luminescence, cherry-pick (AID 651692); format: functional, cell-based
[10] = biological target: T2, DNA repair and recombination protein RAD54-like (Homo sapiens, UniProt Q92698); assay: inhibitors of human RAD54 branch migration, confirmation, biochemical, fluorescence, cherry-picked samples, dose series (AID 651657); format: functional
T2 sequence (Q92698 whole entry): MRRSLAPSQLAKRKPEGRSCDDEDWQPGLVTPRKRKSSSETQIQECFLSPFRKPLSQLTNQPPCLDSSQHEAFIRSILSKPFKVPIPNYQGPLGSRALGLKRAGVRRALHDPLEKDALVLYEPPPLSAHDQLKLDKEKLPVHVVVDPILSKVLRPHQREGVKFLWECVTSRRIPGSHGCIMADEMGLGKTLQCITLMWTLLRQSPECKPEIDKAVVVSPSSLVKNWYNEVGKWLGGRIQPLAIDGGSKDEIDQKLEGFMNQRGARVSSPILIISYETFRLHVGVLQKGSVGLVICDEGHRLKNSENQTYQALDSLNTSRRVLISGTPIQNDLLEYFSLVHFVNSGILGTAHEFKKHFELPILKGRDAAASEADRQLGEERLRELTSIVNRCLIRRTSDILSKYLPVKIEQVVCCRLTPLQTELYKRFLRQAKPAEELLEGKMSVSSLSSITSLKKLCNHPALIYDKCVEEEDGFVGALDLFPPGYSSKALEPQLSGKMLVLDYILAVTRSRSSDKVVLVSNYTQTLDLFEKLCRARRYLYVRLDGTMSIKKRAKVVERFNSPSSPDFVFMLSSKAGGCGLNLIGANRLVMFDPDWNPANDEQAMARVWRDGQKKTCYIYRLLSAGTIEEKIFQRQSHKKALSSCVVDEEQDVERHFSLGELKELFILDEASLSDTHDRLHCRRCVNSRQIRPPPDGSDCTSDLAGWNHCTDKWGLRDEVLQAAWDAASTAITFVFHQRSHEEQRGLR

[11] = biological target: SWI/SNF-related matrix-associated actin-dependent regulator of chromatin subfamily A member 2 (Homo sapiens, UniProt P51531); assay: Luminescence-based cell-based high throughput dose response assay to identify activators of the function of SWI/SNF related, matrix associated, actin dependent regulator of chromatin, subfamily a, member 2 (SMARCA2, BRM).; format: functional
[12] = Counterscreen for activators of the function of SWI/SNF related, matrix associated, actin dependent regulator of chromatin, subfamily a, member 2 (SMARCA2, BRM): Luminescence-based cell-based high throughput dose response assay to identify non-selective compounds using the VP16 reporter assay.; format: functional
[13] = biological target: T3, DNA repair protein RAD52 homolog (Homo sapiens, UniProt P43351); format: functional, biochemical
T3 sequence (P43351 whole entry): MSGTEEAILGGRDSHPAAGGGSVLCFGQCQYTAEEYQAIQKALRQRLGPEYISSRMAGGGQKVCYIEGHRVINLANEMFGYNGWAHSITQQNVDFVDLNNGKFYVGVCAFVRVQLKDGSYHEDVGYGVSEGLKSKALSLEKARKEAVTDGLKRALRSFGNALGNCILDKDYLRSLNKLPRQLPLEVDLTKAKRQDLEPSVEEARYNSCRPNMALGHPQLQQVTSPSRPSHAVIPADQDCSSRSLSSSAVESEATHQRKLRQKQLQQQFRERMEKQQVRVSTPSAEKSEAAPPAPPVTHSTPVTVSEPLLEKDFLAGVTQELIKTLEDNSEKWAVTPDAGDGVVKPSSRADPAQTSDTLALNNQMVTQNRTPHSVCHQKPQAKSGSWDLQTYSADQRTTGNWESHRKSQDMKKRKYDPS

[14] = biological target: Mu-type opioid receptor (Homo sapiens, UniProt P35372); format: functional, cell-based;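 note: U2OS cells with beta-arrestin recruitment to OPRM1 by beta-gal complementation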
[15] = biological target: 5-hydroxytryptamine receptor 2A (Mus musculus, UniProt P35363); format: functional, cell-based;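 note: CHO-K1 cells with tagged receptor and beta-arrestin; agonist potency measured as compound-induced activation of the receptor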
[16] = Late stage assay provider results from the probe development effort to identify inhibitors of the Plasmodium falciparum M17 Leucine Aminopeptidase (M17LAP): radiolabel-based cell-based dose response assay to identify compounds that inhibit P. falciparum growth in RBCs Set 2.; format: functional
[17] = biological target: ADP-ribosylation factor GTPase-activating protein 1 (Rattus norvegicus, UniProt Q62848); assay: Fluorescence polarization-based biochemical high throughput dose response screening assay to identify inhibitors of ADP-ribosylation factor GTPase activating protein 1 (ARFGAP1).; format: functional
[18] = biological target: Arf-GAP with SH3 domain, ANK repeat and PH domain-containing protein 1 (Homo sapiens, UniProt Q9ULH1); format: functional;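 note: biochemical fluorescence polarization dose–response screen measuring inhibition of ASAP1; ASAP1 GAP domain stimulating GTP hydrolysis by truncated human ARF1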
[19] = T. cruzi growth inhibition in host cells, dose response, cell-based, plate reader, dry powder, set 2 (AID 652275); format: functional
[20] = tested on: HeLa; assay: HeLa cell cytotoxicity, dose response, cytotoxicity control, ATP luminescence, cherry-pick samples (AID 687004); format: functional, cell-based; conditions: Homo sapiens
[21] = tested on: HEK293; assay: HEK293T cell cytotoxicity, dose response, cytotoxicity control, ATP luminescence, cherry-pick samples (AID 687005); format: functional, cell-based; conditions: Homo sapiens;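 note: cells exposed to compound for 48 hours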
[22] = HEK293 Cytotoxicity Assay Measured in Cell-Based System Using Plate Reader - 7071-01_Inhibitor_Dose_CherryPick_Activity_Set2.; format: functional
[23] = biological target: T4, RNA-binding protein pos-1 (Caenorhabditis elegans, UniProt G5EF15); assay: inhibitors of POS-1/mex-3 RNA binding, dose response, biochemical, fluorescence polarization (AID 1964);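 note: purified POS-1 fused to maltose binding protein made in E. coli; potency of compounds blocking POS-1 binding to fluorescent RNA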
T4 sequence (G5EF15 whole entry): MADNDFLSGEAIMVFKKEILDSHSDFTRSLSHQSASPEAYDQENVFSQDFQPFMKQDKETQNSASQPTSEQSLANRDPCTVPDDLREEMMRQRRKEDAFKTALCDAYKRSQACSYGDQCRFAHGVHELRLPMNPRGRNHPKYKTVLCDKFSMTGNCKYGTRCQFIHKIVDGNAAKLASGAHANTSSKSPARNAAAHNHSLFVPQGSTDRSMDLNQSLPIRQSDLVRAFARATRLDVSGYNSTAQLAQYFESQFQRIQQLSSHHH

[24] = biological target: T5, Zinc finger protein mex-5 (Caenorhabditis elegans, UniProt Q9XUB2); assay: MEX-5/TCR-2 RNA interaction inhibitors, dose response, biochemical, C. elegans, fluorescence polarization (AID 1960)
T5 sequence (Q9XUB2 whole entry): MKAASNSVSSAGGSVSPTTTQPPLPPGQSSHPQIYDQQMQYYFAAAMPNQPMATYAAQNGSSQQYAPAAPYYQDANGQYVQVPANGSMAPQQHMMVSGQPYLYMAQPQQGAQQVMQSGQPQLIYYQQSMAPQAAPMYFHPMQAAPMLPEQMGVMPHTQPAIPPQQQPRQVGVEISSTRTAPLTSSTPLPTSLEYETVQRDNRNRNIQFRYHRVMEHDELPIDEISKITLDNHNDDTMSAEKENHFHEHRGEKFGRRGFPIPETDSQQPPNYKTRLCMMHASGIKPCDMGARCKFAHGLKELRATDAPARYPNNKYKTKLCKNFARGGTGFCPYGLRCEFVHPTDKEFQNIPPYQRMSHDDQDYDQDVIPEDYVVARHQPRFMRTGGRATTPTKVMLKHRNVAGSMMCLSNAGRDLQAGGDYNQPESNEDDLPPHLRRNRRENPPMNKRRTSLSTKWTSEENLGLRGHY

[25] = biological target: Beta-lactamase (Pseudomonas aeruginosa, UniProt Q79MP6);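 note: biochemical dose-response test of metallo-beta-lactamase enzyme inhibition, read out by epi-absorbance; purified recombinant IMP-1 metallo-beta-lactamase with nitrocefin as substrate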
[26] = biological target: Beta-lactamase (Salmonella choleraesuis (strain SC-B67), UniProt Q5J463)
[27] = biological target: T6, Scavenger receptor class B member 1 (Mus musculus, UniProt Q61009); assay: inhibitors of SR-BI mediated HDL lipid uptake, dose response, ldlA[mSR-BI] cells, fluorescence, cherry pick (AID 493194); format: functional, cell-based;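 note: cellular uptake of fluorescent DiI-labeled HDL measured as cell fluorescence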
T6 sequence (Q61009 whole entry): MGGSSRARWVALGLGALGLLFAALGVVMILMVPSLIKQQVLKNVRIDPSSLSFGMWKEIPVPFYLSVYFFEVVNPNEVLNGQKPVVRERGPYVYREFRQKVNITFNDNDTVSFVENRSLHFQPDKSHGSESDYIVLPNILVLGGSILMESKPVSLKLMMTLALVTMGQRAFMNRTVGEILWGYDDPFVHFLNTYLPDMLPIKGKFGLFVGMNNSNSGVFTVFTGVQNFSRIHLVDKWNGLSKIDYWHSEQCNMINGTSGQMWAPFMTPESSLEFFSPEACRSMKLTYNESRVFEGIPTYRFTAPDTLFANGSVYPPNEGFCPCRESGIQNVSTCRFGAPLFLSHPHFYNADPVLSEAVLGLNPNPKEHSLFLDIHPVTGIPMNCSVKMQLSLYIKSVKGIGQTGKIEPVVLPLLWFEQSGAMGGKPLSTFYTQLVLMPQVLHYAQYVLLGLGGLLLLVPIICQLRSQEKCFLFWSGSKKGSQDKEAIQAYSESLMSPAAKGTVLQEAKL

[28] = biological target: Broad substrate specificity ATP-binding cassette transporter ABCG2 (Homo sapiens, UniProt Q9UNQ0); assay: ABCG2 efflux pump inhibitors, dose response, Ig-MXP3 cells, flow cytometry (AID 1690); format: functional
[29] = microbe, parasite or virus in culture; format: functional; conditions: Mycobacterium tuberculosis
[30] = biological target: Matrix metalloproteinase-14 (Homo sapiens, UniProt P50281); assay: Dose Response confirmation of uHTS hits for a small molecule inhibitors of MT1-MMP activation in a fluorescence assay set 1.; format: functional
[31] = biological target: Long-chain-fatty-acid--AMP ligase FadD28 (Mycobacterium tuberculosis, UniProt P9WQ59); assay: Fluorescence polarization aasay to screen for inhibitors that compete for the binding of FadD28 to a bisubstrate Measured in Biochemical System Using Plate Reader - 2147-01_Inhibitor_Dose_CherryPick_Activity.; format: functional, Mycobacterium tuberculosis H37Rv
[32] = cells; format: functional, cell-based
[33] = biological target: Nuclear receptor subfamily 0 group B member 1 (Homo sapiens, UniProt P51843); format: functional, cell-based;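 note: HEK293T cells transfected with SF-1 and DAX-1 plus StAR promoter luciferase reporter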
[34] = biological target: T6, Scavenger receptor class B member 1; assay: inhibitors of SR-BI-mediated HDL uptake, dose response, cell-based, ldlA[mSR-BI] CHO, DiI fluorescence, dry powder, set 10 (AID 624029); format: functional

SWI/SNF-related matrix-associated actin-dependent regulator of chromatin subfamily A member 2, sequence (P51531 whole entry): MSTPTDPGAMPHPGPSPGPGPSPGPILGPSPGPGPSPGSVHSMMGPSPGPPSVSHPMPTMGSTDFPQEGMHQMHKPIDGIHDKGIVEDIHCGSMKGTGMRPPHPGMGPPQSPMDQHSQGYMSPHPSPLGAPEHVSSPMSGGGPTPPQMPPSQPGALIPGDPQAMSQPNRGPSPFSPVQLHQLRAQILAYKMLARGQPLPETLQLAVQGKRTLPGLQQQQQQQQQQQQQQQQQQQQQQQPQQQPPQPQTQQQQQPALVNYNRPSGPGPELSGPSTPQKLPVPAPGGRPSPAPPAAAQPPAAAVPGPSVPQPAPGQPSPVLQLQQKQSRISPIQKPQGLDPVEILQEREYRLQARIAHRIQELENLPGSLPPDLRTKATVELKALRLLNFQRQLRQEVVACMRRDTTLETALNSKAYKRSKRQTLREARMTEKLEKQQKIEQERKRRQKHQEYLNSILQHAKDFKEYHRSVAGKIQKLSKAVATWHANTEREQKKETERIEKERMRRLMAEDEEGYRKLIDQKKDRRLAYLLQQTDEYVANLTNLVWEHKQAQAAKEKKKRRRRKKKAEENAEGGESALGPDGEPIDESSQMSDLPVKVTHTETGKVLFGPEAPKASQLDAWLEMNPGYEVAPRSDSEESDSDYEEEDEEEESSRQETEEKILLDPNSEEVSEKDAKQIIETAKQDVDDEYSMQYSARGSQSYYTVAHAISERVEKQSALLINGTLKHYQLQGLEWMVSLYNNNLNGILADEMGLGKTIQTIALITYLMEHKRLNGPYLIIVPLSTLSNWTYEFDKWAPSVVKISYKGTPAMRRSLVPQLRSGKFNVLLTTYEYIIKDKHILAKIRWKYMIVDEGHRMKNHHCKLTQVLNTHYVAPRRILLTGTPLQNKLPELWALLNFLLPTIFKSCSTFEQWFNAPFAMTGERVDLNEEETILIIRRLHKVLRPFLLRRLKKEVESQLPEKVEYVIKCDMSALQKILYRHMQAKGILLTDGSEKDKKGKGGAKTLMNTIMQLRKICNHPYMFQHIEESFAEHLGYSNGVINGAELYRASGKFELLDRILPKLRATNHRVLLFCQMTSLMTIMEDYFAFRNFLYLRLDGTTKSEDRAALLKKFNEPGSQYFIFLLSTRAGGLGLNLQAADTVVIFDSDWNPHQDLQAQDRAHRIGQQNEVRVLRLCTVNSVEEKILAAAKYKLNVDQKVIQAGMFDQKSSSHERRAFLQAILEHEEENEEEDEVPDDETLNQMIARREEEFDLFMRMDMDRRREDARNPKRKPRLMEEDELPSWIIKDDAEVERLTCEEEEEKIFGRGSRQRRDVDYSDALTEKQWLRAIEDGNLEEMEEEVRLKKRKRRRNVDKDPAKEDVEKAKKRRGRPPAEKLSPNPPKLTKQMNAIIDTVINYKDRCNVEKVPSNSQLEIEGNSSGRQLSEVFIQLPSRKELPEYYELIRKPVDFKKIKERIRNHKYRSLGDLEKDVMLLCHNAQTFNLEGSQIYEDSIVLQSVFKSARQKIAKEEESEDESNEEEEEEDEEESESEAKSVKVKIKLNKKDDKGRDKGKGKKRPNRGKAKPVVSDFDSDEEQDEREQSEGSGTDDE
ADP-ribosylation factor GTPase-activating protein 1, sequence (Q62848 whole entry, the tested form may be a part): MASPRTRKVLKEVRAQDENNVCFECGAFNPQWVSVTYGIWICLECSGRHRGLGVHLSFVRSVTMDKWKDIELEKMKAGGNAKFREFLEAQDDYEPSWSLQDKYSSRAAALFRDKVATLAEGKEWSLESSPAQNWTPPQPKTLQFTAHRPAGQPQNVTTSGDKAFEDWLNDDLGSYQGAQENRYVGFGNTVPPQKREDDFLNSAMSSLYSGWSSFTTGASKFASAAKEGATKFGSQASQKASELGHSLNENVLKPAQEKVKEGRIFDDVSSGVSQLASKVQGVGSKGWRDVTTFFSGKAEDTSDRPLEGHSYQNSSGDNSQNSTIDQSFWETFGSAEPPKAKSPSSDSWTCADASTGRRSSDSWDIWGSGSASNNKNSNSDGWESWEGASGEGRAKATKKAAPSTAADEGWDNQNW
Nuclear receptor subfamily 0 group B member 1, sequence (P51843 whole entry): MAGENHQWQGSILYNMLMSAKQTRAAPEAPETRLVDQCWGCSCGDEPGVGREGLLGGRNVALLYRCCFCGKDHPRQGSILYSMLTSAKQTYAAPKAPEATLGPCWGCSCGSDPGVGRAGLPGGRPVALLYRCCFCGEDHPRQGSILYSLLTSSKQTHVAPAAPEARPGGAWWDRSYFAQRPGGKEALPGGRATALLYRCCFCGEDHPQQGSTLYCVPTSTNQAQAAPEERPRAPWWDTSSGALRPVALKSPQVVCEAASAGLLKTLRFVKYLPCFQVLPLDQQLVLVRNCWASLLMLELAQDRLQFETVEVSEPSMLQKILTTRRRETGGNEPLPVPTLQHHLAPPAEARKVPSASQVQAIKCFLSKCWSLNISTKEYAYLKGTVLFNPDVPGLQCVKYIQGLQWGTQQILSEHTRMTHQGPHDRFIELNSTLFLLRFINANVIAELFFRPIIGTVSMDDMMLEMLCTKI
Mu-type opioid receptor, sequence (P35372 whole entry): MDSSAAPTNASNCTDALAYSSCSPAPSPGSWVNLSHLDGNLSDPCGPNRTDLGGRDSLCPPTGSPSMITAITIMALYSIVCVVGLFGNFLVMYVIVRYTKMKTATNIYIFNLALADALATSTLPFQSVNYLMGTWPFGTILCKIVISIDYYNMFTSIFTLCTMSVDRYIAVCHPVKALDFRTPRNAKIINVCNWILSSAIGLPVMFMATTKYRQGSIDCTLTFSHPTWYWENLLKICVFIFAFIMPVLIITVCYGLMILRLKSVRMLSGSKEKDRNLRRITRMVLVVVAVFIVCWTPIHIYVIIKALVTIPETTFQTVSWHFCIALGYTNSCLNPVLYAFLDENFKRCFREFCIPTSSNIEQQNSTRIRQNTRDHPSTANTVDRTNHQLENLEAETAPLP
5-hydroxytryptamine receptor 2A, sequence (P35363 whole entry): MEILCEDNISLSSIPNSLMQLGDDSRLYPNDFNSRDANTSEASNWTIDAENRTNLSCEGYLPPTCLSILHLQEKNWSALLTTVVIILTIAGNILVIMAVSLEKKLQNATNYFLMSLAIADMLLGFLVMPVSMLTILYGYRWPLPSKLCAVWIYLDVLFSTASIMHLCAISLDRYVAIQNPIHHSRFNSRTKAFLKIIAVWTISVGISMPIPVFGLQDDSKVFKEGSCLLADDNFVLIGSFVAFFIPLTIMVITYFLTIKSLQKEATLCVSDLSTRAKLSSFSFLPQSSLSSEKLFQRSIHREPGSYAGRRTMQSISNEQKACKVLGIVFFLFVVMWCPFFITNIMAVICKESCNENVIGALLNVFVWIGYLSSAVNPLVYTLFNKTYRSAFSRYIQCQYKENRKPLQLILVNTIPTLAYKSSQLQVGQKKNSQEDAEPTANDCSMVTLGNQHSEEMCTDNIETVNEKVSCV
Beta-lactamase (Pseudomonas aeruginosa, UniProt Q79MP6), sequence (Q79MP6 whole entry): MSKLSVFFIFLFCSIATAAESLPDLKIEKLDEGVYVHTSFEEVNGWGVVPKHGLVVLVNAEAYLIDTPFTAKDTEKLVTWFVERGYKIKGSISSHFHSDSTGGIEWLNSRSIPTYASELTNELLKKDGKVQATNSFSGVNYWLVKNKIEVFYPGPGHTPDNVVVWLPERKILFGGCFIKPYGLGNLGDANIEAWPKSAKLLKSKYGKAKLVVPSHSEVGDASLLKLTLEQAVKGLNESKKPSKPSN
Arf-GAP with SH3 domain, ANK repeat and PH domain-containing protein 1, sequence (Q9ULH1 whole entry, the tested form may be a part): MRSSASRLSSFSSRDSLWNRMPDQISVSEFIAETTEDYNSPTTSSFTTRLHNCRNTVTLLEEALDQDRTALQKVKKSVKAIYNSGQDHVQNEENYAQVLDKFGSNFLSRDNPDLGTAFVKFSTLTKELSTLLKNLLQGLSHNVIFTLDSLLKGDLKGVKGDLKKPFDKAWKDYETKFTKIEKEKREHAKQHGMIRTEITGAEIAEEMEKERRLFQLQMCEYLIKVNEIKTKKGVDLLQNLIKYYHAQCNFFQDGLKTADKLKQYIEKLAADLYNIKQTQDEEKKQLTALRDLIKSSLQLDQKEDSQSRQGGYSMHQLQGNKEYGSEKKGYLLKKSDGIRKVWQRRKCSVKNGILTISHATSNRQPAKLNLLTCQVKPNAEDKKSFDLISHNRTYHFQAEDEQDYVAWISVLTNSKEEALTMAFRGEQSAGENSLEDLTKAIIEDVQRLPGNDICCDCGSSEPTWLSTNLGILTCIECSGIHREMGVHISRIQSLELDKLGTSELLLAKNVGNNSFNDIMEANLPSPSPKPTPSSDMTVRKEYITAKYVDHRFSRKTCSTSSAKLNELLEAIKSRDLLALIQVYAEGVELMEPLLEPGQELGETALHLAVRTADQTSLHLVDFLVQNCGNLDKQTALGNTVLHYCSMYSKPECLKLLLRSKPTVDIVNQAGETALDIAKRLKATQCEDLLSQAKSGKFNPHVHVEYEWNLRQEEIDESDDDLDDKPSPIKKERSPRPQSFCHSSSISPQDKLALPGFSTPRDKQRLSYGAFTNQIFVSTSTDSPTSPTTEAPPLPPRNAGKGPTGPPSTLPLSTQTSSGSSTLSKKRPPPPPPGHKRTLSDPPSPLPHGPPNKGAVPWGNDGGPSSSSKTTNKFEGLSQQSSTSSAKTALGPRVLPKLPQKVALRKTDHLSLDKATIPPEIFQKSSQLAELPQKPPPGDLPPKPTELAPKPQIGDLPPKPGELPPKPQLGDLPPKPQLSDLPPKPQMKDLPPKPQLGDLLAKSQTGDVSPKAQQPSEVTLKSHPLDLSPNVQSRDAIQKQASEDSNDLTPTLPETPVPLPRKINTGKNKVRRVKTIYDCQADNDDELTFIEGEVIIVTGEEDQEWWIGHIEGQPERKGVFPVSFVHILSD
Beta-lactamase (Salmonella choleraesuis (strain SC-B67), UniProt Q5J463), sequence (Q5J463 whole entry): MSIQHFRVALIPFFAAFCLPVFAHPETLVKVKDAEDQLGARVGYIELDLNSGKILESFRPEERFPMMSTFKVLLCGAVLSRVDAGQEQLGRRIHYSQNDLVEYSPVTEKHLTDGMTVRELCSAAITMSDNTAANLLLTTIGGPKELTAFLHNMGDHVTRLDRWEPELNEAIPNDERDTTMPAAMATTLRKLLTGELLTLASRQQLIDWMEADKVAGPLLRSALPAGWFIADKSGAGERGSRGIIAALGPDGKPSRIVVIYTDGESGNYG

Cc1ccccc1NCC(=O)N/N=C\c1ccc([N+](=O)[O-])s1
EC50 [1]: 0.506 µM (active) | EC50 [2]: > 60 µM (not active) | CC50 [3]: 18.8 µM (active) | CC50 [4]: 16 µM (active) | CC50 [5]: 13.8 µM (active) | IC50 [6]: 5.71 µM (active) | IC50 [7]: 46.7 µM (active) | IC50 [8]: 90.4 µM (inactive)

COc1cc(Nc2c3ccccc3nc3ccccc23)cc(OC)c1OC
AC50 [9]: 29.2 µM (active) | AC50 [10]: 14.8 µM (active) | EC50 [11]: > 91.2 µM (inactive) | EC50 [12]: > 91.2 µM (inactive) | AC50 [13]: 5.17 µM (active)

Cc1ccc(CN2CCN(C(=O)c3ccco3)CC2)cc1
EC50 [14]: 92.5 µM (inactive) | EC50 [15]: 0.475 µM (active)

CCC(C)Oc1ccc(CC(=O)NO)cc1 (centres undefined)
IC50 [16]: 16.3 µM (inactive)

COc1ccc([N+](=O)[O-])cc1NC(=O)c1ccc(Br)s1
IC50 [17]: 35.6 µM (inactive) | IC50 [18]: 20.8 µM (inactive)

CN(C)C(=O)c1ccc(-c2ccc([C@H]3[C@H](CO)N4CCCCN(C(=O)C5CCC5)C[C@@H]34)cc2)cc1
AC50 [19]: 0.072 µM (active)

C[C@H]1CN([C@@H](C)CO)S(=O)(=O)c2ccc(C#Cc3ccccn3)cc2O[C@@H]1CN(C)Cc1ccccc1
AC50 [20]: > 52 µM (inactive) | AC50 [21]: 24.2 µM (active) | AC50 [22]: 24.2 µM (active)

COc1ccc(/C=C2\CCCc3c2nc2ccccc2c3C(=O)O)cc1OC
EC50 [23]: 9.28 µM (active) | EC50 [24]: 8.26 µM (inconclusive) | IC50 [25]: > 59.6 µM (inactive) | IC50 [26]: 11.2 µM (inactive)

Cc1c(C(=O)Nc2ccc(F)cc2)c2ccccn2c1CCc1ccncc1
AC50 [27]: 20.4 µM (active) | EC50 [28]: 6.84 µM (inactive)

COc1ccc(-c2oc3ccc(-c4ccc(OC)nc4)cc3c2C#CC2(O)CCCCC2)cc1
CC50 [29]: > 40 µM (active) | IC50 [30]: 5.57 µM (active)

O=[N+]([O-])c1ccc(CNc2ccc(Cl)cc2)s1
AC50 [31]: > 100 µM (inactive)

CC(=Nc1ccccc1)C1=C(O)C(Cc2cccc(F)c2)NC1=O (centres undefined)
IC50 [32]: > 67.5 µM (inactive) | IC50 [33]: > 67.5 µM (inactive)

CC(C)NC(=O)Nc1ccc2c(c1)C(=O)N([C@@H](C)CO)C[C@@H](C)[C@@H](CN(C)S(=O)(=O)c1ccc(Cl)cc1)O2
AC50 [34]: 69.6 µM (active)
